Test results from patent US6492329B1, “Cytokine and hemopoietic factor endogenous production enhancer and methods of use thereof” (Novelos Therapeutics, Inc., priority 1995, dated 2002).

Experiments:
[1] = system: leukemia L1210 cells; assay: Leukemia L1210 in mice: ascitic fluid and survival (Example 14); conditions: for Accumulation of ascitic (weight gain, %): leukemia L1210; for Mean survival time: mice inoculated with leukemia L1210 cells
[2] = system: e-ras cell line (REF transformed with E1A and ras-oncogene); assay: Number of clones of e-ras cells throughout 72-hr incubation; assay type: cell-based, rat
Method: (§1) To this end, these substances had been incubated for 72 hours with cells of rat embrional fibroblasts (REF) and the same cells, transformed with adenoviral E1A gene in complementation with ras-oncogene (e-ras cell line). Subsequent evaluation of the cellularity of experimental samples was carried out by counting the quantity of cell per milliliter (for REF cell line) or clones in dish (for e-ras cell line).
(§2) Cells were cultivated on DMEM medium supplemented with 10% fetal calf serum and […] gentamicin. Cultivation was carried out in Petri dishes.
(§3) E-ras cells were seeded at a cell density of 300 cells per 5 cm dish. 7 days after growth of e-ras cells had been started the quantity of clones was evaluated and the test articles were added into the dishes.
(§4) For the test-system for estimation of apoptosis regulation UV-induced cell death was triggered in a dose of 4 Dj. Test articles were added immediately after irradiation. Then, the quantity of cell per milliliter (for REF cell line) or clones in dish (for e-ras cell line) were monitored every 24 hours. For determination of DNA-fragmentation the electrophoresis in agarose gel was used at standard settings.

[3] = system: e-ras cells after UV-irradiation; assay: Number of clones of e-ras cells after UV-irradiation; assay type: cell-based, rat
Method: as §1, §2, §3, §4

[4] = system: rat embrional fibroblasts (REF); assay: Number of REF cells throughout 72-hr incubation; assay type: cell-based
Method: as §1, §2
(§5) REF cells was cultivated with initial density of 800 000 cell per mL, evaluation of the cellularity was performed at 0, 24, 48 and 72 hours of incubation with the test articles.
as §4

[5] = system: Erlich adenocarcinoma cells; assay: Erlich adenocarcinoma in mice: ascitic fluid and survival (Example 14); conditions: for Accumulation of ascitic (weight gain, %): Erlich adenocarcinoma; for Mean survival time: mice inoculated with Erlich adenocarcinoma cells
Method: (§6) An influence of 7 day course of test article daily administration was studied in respect of tumor progression, which was estimated using the two integral indices: pace of mouse weight gain due to accumulation of ascitic fluid, and by animal mean survival time after inoculation.
(§7) The study was carried out on DBA/2 mice weighing 18-21 g. First, tumor cell passage was performed using 6 animals for each cell line. For this, cells kept at the temperature of the liquid nitrogen were de-frozen and adjusted to the concentration of 5×10^6 cells/mL by sterile Hanks' solution. Then, 6 mice were intra peritoneally inoculated with 0.2 mL of each line cellular suspension.
(§8) Ascitic fluid was collected 6 days after the inoculation with L1210 cells, 8 days after the inoculation with P388 ones and 18 days after inoculation with Erlich adenocarcinoma cells. Thus obtained, the samples of passaged tumor cells were used for the main experiments. The fluid liquid was dissolved by sterile Hanks' solution so that cell concentration be 5×10^6 cells/mL for P388 cells and Erlich adenocarcinoma cells, 5×10^5 cells/mL for L1210 cells.
(§9) Eleven groups of animals with no less than 15 mice each were formed for experiments with either tumor cell line. Mice were inoculated with 0.2 mL of resultant cell suspensions per mouse (10^6 P388 and Erlich adenocarcinoma cells/mouse, and 10^5 L1210 cells/mouse). 24 hours after the tumor cells inoculation, animals were given the first injections of the test articles or vehicles. The test article injections were made daily till the 14th day of the experiment or till the animal death. The volume of solutions injected comprised 0.01 mL/g body weight.
(§10) #1—intact animals receiving imitation of tumor cell inoculation (injection of normal saline) which further were treated with normal saline throughout the entire experiment;
(§11) #2—control animals, inoculated with tumor cells, which further were treated with test article vehicle (normal saline);

[6] = system: leukemia P388 cells; assay: Leukemia P388 in mice: ascitic fluid and survival (Example 14); conditions: for Accumulation of ascitic (weight gain, %): leukemia P388; for Mean survival time: mice inoculated with leukemia P388 cells
Method: as §6, §7, §8, §9, §10, §11

[7] = system: rat embrional fibroblasts (REF) after UV-irradiation; assay: Number of REF cells after UV-irradiation; assay type: cell-based
Method: as §1, §2, §5, §4

Structure (SMILES)	Accumulation of ascitic (weight gain, %) ([1]; number of injection 0)	Accumulation of ascitic (weight gain, %) ([1]; number of injection 3)	Accumulation of ascitic (weight gain, %) ([1]; number of injection 7)	Mean survival time [1]	number of clones of e-ras cells (M ± m) ([2]; 0 hours of incubation)	number of clones of e-ras cells (M ± m) ([2]; 24 hours of incubation)	number of clones of e-ras cells (M ± m) ([2]; 48 hours of incubation)	number of clones of e-ras cells (M ± m) ([2]; 72 hours of incubation)	number of clones of e-ras cells after UV-irradiation (M ± m) ([3]; 0 hours)	number of clones of e-ras cells after UV-irradiation (M ± m) ([3]; 24 hours)	number of clones of e-ras cells after UV-irradiation (M ± m) ([3]; 48 hours)	number of clones of e-ras cells after UV-irradiation (M ± m) ([3]; 72 hours)	number of REF cells (M ± m) ([4]; 0 hours of incubation)	number of REF cells (M ± m) ([4]; 24 hours of incubation)	number of REF cells (M ± m) ([4]; 48 hours of incubation)	number of REF cells (M ± m) ([4]; 72 hours of incubation)	Accumulation of ascitic (weight gain, %) ([5]; number of injection 0)	Accumulation of ascitic (weight gain, %) ([5]; number of injection 3)	Accumulation of ascitic (weight gain, %) ([5]; number of injection 7)	Mean survival time [5]	other results
C[S+](C)[O-] [7% DMSO]	0.51 ± 0.1%	6.4 ± 1.4%	23.6 ± 2.6%	10.2 ± 0.8	268 ± 11	271 ± 2	268 ± 8	243 ± 6	268 ± 11	171 ± 2	108 ± 8	103 ± 6	801 ± 12 × 10^3 cells	1420 ± 17 × 10^3 cells	2651 ± 36 × 10^3 cells	5298 ± 39 × 10^3 cells	0.5 ± 0.2%	11.4 ± 1.1%	24.6 ± 2.2%	10.3 ± 1.8	Accumulation of ascitic (weight gain, %) ([6]; number of injection 0): 0.5 ± 0.1%; Accumulation of ascitic (weight gain, %) ([6]; number of injection 3): 5.4 ± 1.4%; Accumulation of ascitic (weight gain, %) ([6]; number of injection 7): 19.6 ± 1.6%; Mean survival time [6]: 20.6 ± 1.8; number of REF cells after UV-irradiation (M ± m) ([7]; 0 hours): 801 ± 12 × 10^3 cells; number of REF cells after UV-irradiation (M ± m) ([7]; 24 hours): 420 ± 17 × 10^3 cells; number of REF cells after UV-irradiation (M ± m) ([7]; 48 hours): 251 ± 36 × 10^3 cells; number of REF cells after UV-irradiation (M ± m) ([7]; 72 hours): 208 ± 39 × 10^3 cells
NCCSSCCNC(=O)CNC(=O)C(CSSCC(NC(=O)CCC(N)C(=O)O)C(=O)NCC(=O)O)NC(=O)CCC(N)C(=O)O (stereo not drawn) [S-thioeethylamine-GSSG + normal saline]																					Accumulation of ascitic (weight gain, %) ([6]; number of injection 0): 0.7 ± 0.2%; Accumulation of ascitic (weight gain, %) ([6]; number of injection 3): 2.1 ± 0.4%; Accumulation of ascitic (weight gain, %) ([6]; number of injection 7): 8.2 ± 1.2%; Mean survival time [6]: 28.2 ± 0.8
NCCSSCCNC(=O)CNC(=O)C(CSSCC(NC(=O)CCC(N)C(=O)O)C(=O)NCC(=O)O)NC(=O)CCC(N)C(=O)O (stereo not drawn) [S-thioethylamine-GSSG + normal saline]	0.77 ± 0.2%	3.1 ± 0.4%	92 ± 1.2%	19.2 ± 0.8													0.8 ± 0.1%	3.2 ± 0.6%	10.2 ± 2.2%	16.2 ± 1.2	
NCCSSCCNC(=O)CNC(=O)C(CSSCC(NC(=O)CCC(N)C(=O)O)C(=O)NCC(=O)O)NC(=O)CCC(N)C(=O)O (stereo not drawn) [S-thioethylamine-GSSG in normal saline]					286 ± 14	202 ± 14	156 ± 10	112 ± 12	286 ± 14	182 ± 14	116 ± 8	82 ± 4	789 ± 21 × 10^3 cells	1422 ± 14 × 10^3 cells	2602 ± 43 × 10^3 cells	5112 ± 168 × 10^3 cells					number of REF cells after UV-irradiation (M ± m) ([7]; 0 hours): 789 ± 21 × 10^3 cells; number of REF cells after UV-irradiation (M ± m) ([7]; 24 hours): 422 ± 14 × 10^3 cells; number of REF cells after UV-irradiation (M ± m) ([7]; 48 hours): 260 ± 23 × 10^3 cells; number of REF cells after UV-irradiation (M ± m) ([7]; 72 hours): 212 ± 16 × 10^3 cells
NCCSSCCNC(=O)CNC(=O)C(CSSCC(NC(=O)CCC(N)C(=O)O)C(=O)NCC(=O)O)NC(=O)CCC(N)C(=O)O (stereo not drawn) [S-thioethylamine-GSSG, S-thioethylamine-glutathione disulfide]																					death of transformed e-ras cells ([2]; 72-hr incubation): induce a transformed cell death; death of transformed e-ras cells after UV-irradiation [3]: potentiate death of the transformed cells; apoptosis of normal cells (REF line) ([4]; 72-hr incubation): didn't promote apoptosis of normal cells; UV-induced apoptosis of normal cells (REF line) [7]: do not promote the apoptosis of normal cells
